Experimental data reported in paper PMC6983048 (Molecules, 2019).
Where two headings read alike, the source gives them in different places.

Legend:
hDHFR = system: hDHFR; set-up: method as in PMID 28152430; conditions: Wang's compounds; read-out: IC50 (Figure 1); cited from earlier work
pBR322 plasmid [1] = assay: Ethidium bromide assay, DNA-binding effects on plasmid pBR322; conditions: for Decrease of Fluorescence: 10 μM compound, plasmid pBR322 with ethidium bromide, 25 °C 30 min, % fluorescence relative to controls (no drug = 100%); for Binding to DNA (pBR322 plasmid), in words: ethidium bromide assay
Procedure: Each well of a 96-well plate was loaded with Tris buffer containing ethidium bromide (0.1 M Tris, 1 M NaCl, pH 8.0, 0.5 mM EtBr final concentration, 100 μL). […] Fluorescence readings are reported as % fluorescence relative to the controls.

T4 coliphage DNA [2] = assay: Ethidium displacement assay, DNA-binding constants; conditions: apparent association constant
Procedure: (§1) The fluorescence of DNA solutions (calf thymus DNA, T4 coliphage DNA, poly(dA-dT)2, and poly(dG-dC)2 with the investigated compound (final concentrations 10, 50, 100 µM) was measured by the fluorescence spectrophotometer Infinite M200 TECAN at room temperature according to the procedure described above. Then, the concentration, which reduced fluorescence to 50% was determined for each compound. The data points of fluorescence intensity were fitted to the theoretical curves, with one or two different iterative nonlinear least squares computer routines. The apparent binding constant was calculated from KEtBr [EtBr] = Kapp [drug], where [drug] = the concentration of the tested compound at 50% reduction of fluorescence and KEtBr and [EtBr] are known. TMP and MTX were also investigated.

calf thymus DNA [3] = assay: Ethidium displacement assay, DNA-binding constants; conditions: apparent association constant
Procedure: as §1

poly(dA-dT)2 [4] = assay: Ethidium displacement assay, DNA-binding constants; conditions: apparent association constant
Procedure: as §1

poly(dG-dC)2 [5] = assay: Ethidium displacement assay, DNA-binding constants; conditions: apparent association constant
Procedure: as §1

[6] = target: T1, recombinant human DHFR enzyme (Homo sapiens, UniProt P00374); assay: Dihydrofolate reductase (DHFR) inhibition assay; format: biochemical; conditions: pH 7.5, 22 °C, absorbance 340 nm
T1 construct: purchased
T1 sequence (P00374 1-187): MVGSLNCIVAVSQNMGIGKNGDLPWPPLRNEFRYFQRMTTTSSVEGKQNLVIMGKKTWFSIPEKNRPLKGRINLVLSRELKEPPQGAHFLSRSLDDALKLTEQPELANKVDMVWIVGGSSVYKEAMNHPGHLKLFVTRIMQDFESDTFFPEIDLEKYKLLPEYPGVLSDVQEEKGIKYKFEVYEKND
Procedure: The procedure for detection of DHFR activity inhibition included preparation of a test mixture in a 1.0 mL quartz cuvette for the spectrophotometric method. Assay buffer—1× for DHFR (pH 7.5) and 1.5 × 10^−3 units of DHFR were added to the appropriate tube and thoroughly mixed. […] After mixing accurately, the reaction was initiated by adding 10 mM dihydrofolic acid (5 µL for each reaction) and a kinetics program was immediately started. The changes in absorbance (ΔOD/ min) were measured by the spectrophotometer Specord 200Plus (Analytikjena, Germany) at 340 nm and 22 °C, and the kinetic program (reading every 15 s for 2.5 min) according to the instructions supplied with the set and recommended by the producer.

[7] = system: poly(dA-dT)2 (DNA, polymer) AT; assay: ethidium bromide displacement fluorescence; conditions: Na+ 1 M; 0.1 M Tris pH 8.0, room temperature; ethidium displaced; apparent
[8] = system: poly(dG-dC)2 (DNA, polymer) GC; assay: ethidium bromide displacement fluorescence; conditions: Na+ 1 M; 0.1 M Tris pH 8.0, room temperature; ethidium displaced; apparent
DHFR = system: DHFR; set-up: method as in PMID 30991189; conditions: cited from earlier work
pBR322 plasmid [9] = system: pBR322 plasmid; set-up: method as in PMID 27008800; conditions: same conditions; cited from earlier work
human DHFR (hDHFR) = conditions: relative to TMP; cited from earlier work
calf thymus DNA [10] = system: calf thymus DNA; set-up: method as in PMID 2540332; conditions: KEtBr, known constant of ethidium bromide; cited from earlier work
T4 coliphage DNA [11] = system: T4 coliphage DNA; set-up: method as in PMID 2540332; conditions: KEtBr, known constant of ethidium bromide; cited from earlier work
poly(dA-dT)2 [12] = system: poly(dA-dT)2; set-up: method as in PMID 2540332; conditions: KEtBr, known constant of ethidium bromide; cited from earlier work
poly(dG-dC)2 [13] = system: poly(dG-dC)2; set-up: method as in PMID 2540332; conditions: KEtBr, known constant of ethidium bromide; cited from earlier work
[14] = read-out: DHFR inhibitory potency IC50
[15] = Sabry's compounds, read-out: IC50 (Figure 1)

SMILES | Decrease of Fluorescence (pBR322 plasmid [1]) | Kapp T4 DNA (T4 coliphage DNA [2]) | Kapp Calf Thymus DNA (calf thymus DNA [3]) | Kapp Poly (dA-dT)2 (poly(dA-dT)2 [4]) | Kapp Poly (dG-dC)2 (poly(dG-dC)2 [5]) | IC50 [6] | Kapp [7] | Kapp [8] | other results
COc1cc(CCc2ccc3nc(N)nc(N)c3n2)cc(OC)c1OC [H] |  |  |  |  |  |  |  |  | IC50 (hDHFR): 290 µM
COc1cc(CCC(=O)Nc2ccc(N)cc2)cc(OC)c1OC [Compound 6, N-(4-Aminophenyl)-3-(3,4,5-Trimethoxyphenyl)Propanamide] | 71.43% | 90000 M⁻¹ | 460000 M⁻¹ | 420000 M⁻¹ | 110000 M⁻¹ | 15.1 µM | 4.2 ± 0.2 × 10^5 M^-1 | 1.1 ± 0.2 × 10^5 M^-1 | 
COc1ccc(CCc2ccc3nc(N)nc(N)c3n2)cc1 [F] |  |  |  |  |  |  |  |  | IC50 (DHFR; [14]): 0.2 µM; IC50 (hDHFR): 760 µM
COc1ccc(-n2c(SC)nc3ccc(NC(=O)C4CCCS4)cc3c2=O)cc1 (stereo not drawn) [E] |  |  |  |  |  |  |  |  | IC50 (DHFR; [15]): 200 µM
Cn1cc(NC(=O)c2cc(NC(=O)CN=C(N)N)cn2C)cc1C(=O)NCCC(=N)N [NT, netropsin, reference compound] | 74% | 830000 M⁻¹ | 870000 M⁻¹ | 8.75e+07 M⁻¹ | 250000 M⁻¹ |  | 8.75e+07 M⁻¹ | 250000 M⁻¹ | DNA-binding effect (fluorescence) (pBR322 plasmid [9]): 74%
CCc1nc(N)nc(N)c1C#CCc1cc(OC)c(OC)c(OC)c1 [C] |  |  |  |  |  |  |  |  | potency greater than TMP (human DHFR (hDHFR)): 3500 fold
COc1cc(CCC(=O)Nc2cnc(N)nc2)cc(OC)c1OC [Compound 3, N-(2-Aminopyrimidin-5-yl)-3-(3,4,5-Trimethoxyphenyl)Propanamide] | 69.92% | 780000 M⁻¹ | 370000 M⁻¹ | 360000 M⁻¹ | 50000 M⁻¹ |  | 3.6 ± 0.2 × 10^5 M^-1 | 0.5 ± 0.2 × 10^5 M^-1 | 
CN(Cc1cnc2nc(N)nc(N)c2n1)c1ccc(C(=O)N[C@@H](CCC(=O)O)C(=O)O)cc1 [MTX, methotrexate, reference compound] | 100% |  |  |  |  |  |  |  | Binding to DNA (pBR322 plasmid), in words (pBR322 plasmid [1]): do not bind to DNA; IC50 (DHFR; [14]): […]
CC[n+]1c(-c2ccccc2)c2cc(N)ccc2c2ccc(N)cc21 [EtBr, Ethidium bromide] |  |  |  |  |  |  |  |  | Kapp Calf Thymus DNA (calf thymus DNA [10]): 1e+07 M⁻¹; Kapp T4 DNA (T4 coliphage DNA [11]): 1e+07 M⁻¹; Kapp Poly (dA-dT)2 (poly(dA-dT)2 [12]): 95 ^b* × 10^5 M^−1; Kapp Poly (dG-dC)2 (poly(dG-dC)2 [13]): 9.9e+06 M⁻¹
COc1ccc(C(=O)Nc2ccc3nc(SC)n(-c4ccc(OC)cc4)c(=O)c3c2)cc1 [D] |  |  |  |  |  |  |  |  | IC50 (DHFR; [15]): 200 µM; IC50 (DHFR; [14]): 0.2 µM
COc1cc(CC(=O)Nc2ccc(N)cc2)cc(OC)c1OC [Compound 5, N-(4-Aminophenyl)-2-(3,4,5 Trimethoxyphenyl)Acetamide] | 69.17% | 680000 M⁻¹ | 520000 M⁻¹ | 1.4e+06 M⁻¹ | 300000 M⁻¹ | 15.9 µM | 14 ± 0.2 × 10^5 M^-1 | 3.0 ± 0.2 × 10^5 M^-1 | 
COc1cc(CC(=O)Nc2cnc(N)nc2)cc(OC)c1OC [Compound 2, N-(2-Aminopyrimidin-5-yl)-2-(3,4,5-Trimethoxyphenyl)Acetamide] | 45.18% | 110000 M⁻¹ | 440000 M⁻¹ | 390000 M⁻¹ | 80000 M⁻¹ | 0.99 µM | 3.9 ± 0.2 × 10^5 M^-1 | 0.8 ± 0.2 × 10^5 M^-1 | 
COc1cc(Cc2cnc(N)nc2N)cc(OC)c1OC [TMP, 2,4-diamino-5-(3,4,5-trimethoxybenzyl) pyrimidine, reference compound] | 100% |  |  |  |  |  |  |  | Binding to DNA (pBR322 plasmid), in words (pBR322 plasmid [1]): do not bind to DNA
COc1cc(C(=O)Nc2cnc(N)nc2)cc(OC)c1OC [Compound 1, N-(2-Aminopyrimidin-5-yl)-3,4,5-Trimethoxybenzamide] | 71.43% | 290000 M⁻¹ | 240000 M⁻¹ | 1.17e+06 M⁻¹ | 130000 M⁻¹ | 21.8 µM | 11.7 ± 0.2 × 10^5 M^-1 | 1.3 ± 0.2 × 10^5 M^-1 | 
COc1cccc(CCc2ccc3nc(N)nc(N)c3n2)c1 [G] |  |  |  |  |  |  |  |  | IC50 (hDHFR): 450 µM
COc1cc(C(=O)Nc2ccc(N)cc2)cc(OC)c1OC [Compound 4, N-(4-Aminophenyl)-3,4,5-Trimethoxybenzamide] | 80.43% | 390000 M⁻¹ | 590000 M⁻¹ | 790000 M⁻¹ | 160000 M⁻¹ | 1.02 µM | 7.9 ± 0.2 × 10^5 M^-1 | 1.6 ± 0.2 × 10^5 M^-1 | 
